Laboratory results reported in patent US4997847A, “Biologically active compounds” (Smith Kline & French Laboratories Limited, priority 1987, dated 1991).

Target: T1, TXA2 receptors (Homo sapiens, UniProt P21731)
T1 construct: to Washed Human Platelets; endogenous in cells; host or cells: washed human platelets
T1 sequence (P21731 1-343): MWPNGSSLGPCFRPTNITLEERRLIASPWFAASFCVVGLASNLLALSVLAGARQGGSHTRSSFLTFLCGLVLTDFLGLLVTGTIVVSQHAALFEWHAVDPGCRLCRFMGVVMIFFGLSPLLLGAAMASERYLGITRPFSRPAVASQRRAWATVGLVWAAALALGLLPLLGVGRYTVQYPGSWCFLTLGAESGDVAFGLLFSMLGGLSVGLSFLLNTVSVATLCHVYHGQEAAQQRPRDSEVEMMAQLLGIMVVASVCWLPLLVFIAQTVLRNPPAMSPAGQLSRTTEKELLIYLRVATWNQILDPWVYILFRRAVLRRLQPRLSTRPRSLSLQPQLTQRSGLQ
Assay: Human platelet binding assay: inhibition of [^125 I]PTA-OH binding to washed human platelets
Details: [^125 I]PTA-OH as receptor ligand, 50% inhibition of specific binding
From the text: As indicated above, compounds of the formula (I) have biological activity that is indicative of an ability to antagonise TXA2 receptors.
The platelet binding assay used was essentially the method described by Mais et al, J. Pharm. Exp. Ther., 1985, 235(3), 729-734 where [^125 I]PTA-OH was used as the receptor ligand.
The IC50 values represent the concentration which produces a 50% inhibition of specific [^125 I]PTA-OH binding.
The activities of the compounds of the present invention in the assay are described in Example 33.
Inhibition of [^125 I]PTA-OH Binding
to Washed Human Platelets

IC50	Structure (SMILES)
2300 nM	O=C(O)CCCCCCNS(=O)(=O)c1ccccc1 [Example 1, 7-(Benzenesulphonamido)heptanoic Acid]
290 nM	O=C(O)CCCCCCCNS(=O)(=O)c1ccccc1 [Example 2, 8-(Benzenesulphonamido)octanoic Acid]
30 nM	O=C(O)CCCCCCCNS(=O)(=O)c1ccc(Cl)cc1 [Example 3, 8-(4-Chlorobenzenesulphonamido)octanoic Acid]
61000 nM	O=C(O)CCCCCNS(=O)(=O)c1ccccc1 [Example 4, 6-(Benzenesulphonamido)hexanoic Acid]
150 nM	CC(C)(CCCCCCNS(=O)(=O)c1ccc(Cl)cc1)C(=O)O [Example 5, 8-(4-Chlorobenzenesulphonamido)-2,2-dimethyloctanoic Acid]
18 nM	O=C(O)CCCCCCCCNS(=O)(=O)c1ccc(Cl)cc1 [Example 6, 9-(4-Chlorobenzenesulphonamido)nonanoic Acid]
280 nM	O=C(O)CCCCCCCCNS(=O)(=O)c1ccccc1 [Example 7, 9-(Benzenesulphonamido)nonanoic Acid]
5400 nM	O=C(O)CCCC#CCNS(=O)(=O)c1ccc(Cl)cc1 [Example 8, 7-(4-Chlorobenzenesulphonamido)hept-5-ynoic Acid]
1600 nM	O=C(O)CCC/C=C\CNS(=O)(=O)c1ccc(Cl)cc1 [Example 9, (Z)-7-(4-Chlorobenzenesulphonamido)hept-5-enoic Acid]
470 nM	CC(C)(CCCCCCCCNS(=O)(=O)c1ccc(Cl)cc1)C(=O)O [Example 10, 2,2-Dimethyl-10-(4-chlorobenzenesulphonamido)decanoic Acid]
7000 nM	O=C(O)CCCCCCCCCCCNS(=O)(=O)c1ccc(Cl)cc1 [Example 11, 12-(4-Chlorobenzenesulphonamido)-dedecanoic Acid]
600 nM	CC(C)(CCCCCNS(=O)(=O)c1ccc(Cl)cc1)CC(=O)O [Example 12, 8-(4-Chlorobenzenesulphonamido)-3,3-dimethyloctanoic Acid]
270 nM	O=C(O)CCCCCCNS(=O)(=O)c1ccc(Cl)cc1 [Example 13, 7-(4-Chlorobenzenesulphonamido)heptanoic Acid]
160 nM	O=C(O)CCCCCCCNS(=O)(=O)c1cccc(Cl)c1 [Example 14, 8-(3-Chlorobenzenesulphonamido)octanoic Acid]
110 nM	O=C(O)CCCCCCCNS(=O)(=O)c1ccc([N+](=O)[O-])cc1 [Example 15, 8-(4-Nitrobenzenesulphonamido)octanoic Acid]
20 nM	O=C(O)CCCCCCCNS(=O)(=O)c1ccc(Br)cc1 [Example 16, 8-(4-Bromobenzenesulphonamido)octanoic Acid]
300 nM	COc1ccc(S(=O)(=O)NCCCCCCCC(=O)O)cc1 [Example 17, 8-(4-Methoxybenzenesulphonamido)octanoic Acid]
70 nM	O=C(O)CCCCCCCNS(=O)(=O)c1ccc(Cl)c(Cl)c1 [Example 18, 8-(3,4-Dichlorobenzenesulphonamido)octanoic Acid]
600 nM	O=C(O)CCCCCCCCCCNS(=O)(=O)c1ccc(Cl)cc1 [Example 19, 11-(4-Chlorobenzenesulphonamido)undecanoic Acid]
1900 nM	O=C(O)CCCCCCCCCCNS(=O)(=O)c1cccc(Cl)c1 [Example 20, 11-(3-Chlorobenzenesulphonamido)undecanoic Acid]
75 nM	Cc1ccc(S(=O)(=O)NCCCCCCCC(=O)O)cc1 [Example 21, 8-(4-tolylsulphonamido)octanoic acid]
250 nM	O=C(O)CCCCCCCCNS(=O)(=O)c1cccc(Cl)c1 [Example 23, 9-(3-Chlorobenzenesulphonamido)nonanoic Acid]
60 nM	O=C(O)CCCCCCCCCNS(=O)(=O)c1ccc(Cl)cc1 [Example 24, 10-(4-Chlorobenzenesulphonamido)decanoic Acid]
220 nM	O=C(O)CCCCCCCNS(=O)(=O)c1ccc(F)cc1 [Example 25, 8(4-Fluorobenzenesulphonamido)octanoic Acid]
40 nM	O=C(O)CCCCCCCCNS(=O)(=O)c1ccc(Br)cc1 [Example 26, 9-(4-Bromobenzenesulphonamido)nonanoic Acid]
40 nM	O=C(O)CCCCCCCNS(=O)(=O)c1ccc(Cl)s1 [Example 29, 8-(5-Chloro-2-thienylsulphonamido)octanoic Acid]
360 nM	CC(C)(CCCCCCCNS(=O)(=O)c1ccc(Cl)cc1)C(=O)O [Example 30, 9-(4-Chlorophenylsulphonamido)-2,2-dimethylnonanoic Acid]
330 nM	CC(C)(CCCCCNS(=O)(=O)c1ccc(Cl)cc1)C(=O)O [Example 31, 7-(4-Chlorophenylsulphonamido)-2,2-dimethylheptanoic Acid]
650 nM	O=C(O)CCCCCCCNS(=O)(=O)c1cc(Cl)sc1Cl [Example 32, 8-(2,5-Dichloro-3-thienylsulphonamido)octanoic Acid]
